Measurements from patent US3974140A, “Ureidoacetamido-penicillins” (Bayer Aktiengesellschaft, priority 1970, dated 1976).

Key:
Staph. aureus 133 [1] = test: MIC, liquid medium test tube series dilution test; assay type: cell-based, Staphylococcus aureus; conditions: Staph. aureus 133, 24 hours, 37°C
In short: (§1)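 Values are minimum inhibitory concentrations in units/ml, taken as the first clear (non-turbid) tube of a dilution series. Tubes of complete liquid medium were incubated 24 h at 37°C.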

Staph. aureus 1777 E = test: MIC, liquid medium test tube series dilution test; assay type: cell-based, Staphylococcus aureus; conditions: 24 hours, 37°C
In short: as §1

Proteus vulg. 1017 = test: MIC, liquid medium test tube series dilution test; assay type: cell-based, Proteus vulgaris; conditions: Proteus vulg. 1017, 24 hours, 37°C
In short: as §1

Proteus vulg. 3400 = test: MIC, liquid medium test tube series dilution test; assay type: cell-based, Proteus vulgaris; conditions: Proteus vulg. 3400, 24 hours, 37°C
In short: as §1

Psdm. aerug. Bonn = test: MIC, liquid medium test tube series dilution test; assay type: cell-based, Pseudomonas aerug.; conditions: 24 hours, 37°C
In short: as §1

Psdm. aerug. Walter [2] = test: MIC, liquid medium test tube series dilution test; assay type: cell-based, Pseudomonas aerug.; conditions: 24 hours, 37°C
In short: as §1

Acid stability = assay type: physicochemical; conditions: pH 1 where stated
[3] = Acute toxicity (LD50), intravenous injection into the vein of the tail; assay type: in vivo; conditions: mouse, in vivo, iv
From the text: Acute toxicity (LD50) in white mice after
intravenous injection into the vein of the […]

Staph. aureus 133 [4] = test: Surviving mice after intraperitoneal infection and subcutaneous therapy; assay type: in vivo, white mice, CF1 strain; conditions: 2 × 200 units/mouse s.c.
Experimental: (§2) The experiments on animals (see Table 3) were carried out with white mice of the CF1 strain. The infection took place intraperitoneally with the particular bacterium indicated.

E. coli 14 = test: MIC, liquid medium test tube series dilution test; assay type: cell-based; conditions: E. coli 14, 24 hours, 37°C
In short: as §1

E. coli 183/58 = test: MIC, liquid medium test tube series dilution test; assay type: cell-based; conditions: E. coli 183/58, 24 hours, 37°C
In short: as §1

[5] = system: Streptoc. faec. ATCC 9790; test: MIC, liquid medium test tube series dilution test; assay type: cell-based; conditions: Strep. faec. (Enterococcus) ATCC 9790, 24 hours, 37°C
In short: as §1

Klebsiella K 10 = test: MIC, liquid medium test tube series dilution test; assay type: cell-based; conditions: Klebsiella K 10, 24 hours, 37°C
In short: as §1

E. coli A 261 = test: MIC, liquid medium test tube series dilution test; assay type: cell-based; conditions: E. coli A 261, 24 hours, 37°C
In short: as §1

E. coli C 165 = test: MIC, liquid medium test tube series dilution test; assay type: cell-based; conditions: E. coli C 165, 24 hours, 37°C
In short: as §1

Klebsiella 63 = test: MIC, liquid medium test tube series dilution test; assay type: cell-based; conditions: Klebsiella 63, 24 hours, 37°C
In short: as §1

Proteus vulgaris 1017 = test: Reduction in number of bacteria/ml of blood after subcutaneous administration; assay type: in vivo, mouse
From the text: Reduction in number of bacteria/ml of blood after subcutaneous
administration of Penicillin No. 83.
Infection took place intraperitoneally with Proteus vulgaris 1017, 8
× 10^5 /mouse; ampicillin-resistant.

E. coli = test: MIC, liquid medium test tube series dilution test; assay type: cell-based; conditions: strain not given, 24 hours
In short: as §1

Klebsiella = conditions: background statement; cited from earlier work
[6] = Serum level after subcutaneous administration, measured from microbiological activity against Proteus vulgaris 1017; assay type: in vivo, white mice; conditions: 150.000 units s.c.
From the text: Serum level after subcutaneous ("s.c.") administration to white mice, in units/ml of serum, measured from the microbiological activity against Proteus vulgaris 1017 (ampicillin-resistant).

Pseudomon. aer. F 41 = test: Surviving mice after intraperitoneal infection and subcutaneous therapy; assay type: in vivo, white mice, CF1 strain; conditions: 30 min before and 2, 4, 6 hours after infection, 1st day
Experimental: as §2

Psdm. aerug. Walter [7] = test: as above; assay type: in vivo, white mice, CF1 strain; conditions: compared with carbenicillin
Experimental: as §2

Row | Compound | MIC (Staph. aureus 133 [1]) | MIC (Staph. aureus 1777 E) | MIC (Proteus vulg. 1017) | MIC (Proteus vulg. 3400) | MIC (Psdm. aerug. Bonn) | MIC (Psdm. aerug. Walter [2]) | Stability to acid (Acid stability) | LD50 [3] | Number of surviving mice (Staph. aureus 133 [4]; 1 day) | Number of surviving mice (Staph. aureus 133 [4]; 2 days) | Number of surviving mice (Staph. aureus 133 [4]; 3 days) | Number of surviving mice (Staph. aureus 133 [4]; 5 days) | MIC (E. coli 14) | MIC (E. coli 183/58) | MIC [5] | MIC (Klebsiella K 10) | MIC (E. coli A 261) | MIC (E. coli C 165) | MIC (Klebsiella 63) | other results
1 | CC(=O)N(C)C(=O)N[C@@H](C(=O)N[C@@H]1C(=O)N2[C@@H]1SC(C)(C)[C@@H]2C(=O)O)c1ccccc1 [Example 66A, Sodium D(-)-α-(3-acetyl-3-methyl-ureido)-benzylpenicillin] | < 0.78 units/ml | 50 units/ml | 50 units/ml | 100 units/ml | 6.25 units/ml | 12.5 units/ml | remain microbiologically active at pH 1 for over one hour | > 4000 mg/kg | 100% | 90% | 70% | 70% | 3.12 units/ml | 50 units/ml | 25 units/ml | 50 units/ml | > 400 units/ml | 12.5 units/ml | 50 units/ml | –
2 | COc1ccc(C(=O)N(C)C(=O)N[C@@H](C(=O)N[C@@H]2C(=O)N3[C@@H]2SC(C)(C)[C@@H]3C(=O)O)c2ccccc2)cc1[N+](=O)[O-] [Example 83, Sodium D(-)-α-(3-[4-methoxy-3-nitrobenzoyl]-3-methyl-ureido)-benzylpenicillin] | < 0.78 units/ml | – | 25 units/ml | 6.25 units/ml | 50 units/ml | 100 units/ml | remain microbiologically active at pH 1 for over one hour | > 1200 mg/kg | 80% | 70% | 70% | 70% | 3.12 units/ml | 6.25 units/ml | 100 units/ml | 25 units/ml | 400 units/ml | 6.25 units/ml | 50 units/ml | Number of bacteria/ml of blood (Proteus vulgaris 1017; 1 × 50,000 units/kg s.c. 30 min after infection, 30 mins.): 9 × 10^3 bacteria/ml of blood; Number of bacteria/ml of blood (Proteus vulgaris 1017; 1 × 50,000 units/kg s.c., 60 mins.): 7 × 10^3 bacteria/ml of blood; Number of bacteria/ml of blood (Proteus vulgaris 1017; 1 × 50,000 units/kg s.c., 90 mins.): 2 × 10^3 bacteria/ml of blood; Number of bacteria/ml of blood (Proteus vulgaris 1017; 1 × 50,000 units/kg s.c., 120 mins.): 1 × 10^3 bacteria/ml of blood; Number of bacteria/ml of blood (Proteus vulgaris 1017; 1 × 50,000 units/kg s.c., 150 mins.): 3 × 10^3 bacteria/ml of blood; Number of bacteria/ml of blood (Proteus vulgaris 1017; 1 × 50,000 units/kg s.c., 180 mins.): 8 × 10^3 bacteria/ml of blood; Number of bacteria/ml of blood (Proteus vulgaris 1017; 50,000 units/kg s.c. after 30 and 90 min, 60 mins.): 8 × 10^3 bacteria/ml of blood; Number of bacteria/ml of blood (Proteus vulgaris 1017; 50,000 units/kg s.c. after 30 and 90 min, 90 mins.): ~5 × 10^3 bacteria/ml of blood; Number of bacteria/ml of blood (Proteus vulgaris 1017; 50,000 units/kg s.c. after 30 and 90 min, 120 mins.): 2 × 10^2 bacteria/ml of blood; Number of bacteria/ml of blood (Proteus vulgaris 1017; 50,000 units/kg s.c. after 30 and 90 min, 150 mins.): < 10^1 bacteria/ml of blood; Number of bacteria/ml of blood (Proteus vulgaris 1017; 50,000 units/kg s.c. after 30 and 90 min, 180 mins.): < 10^1 bacteria/ml of blood; Number of bacteria/ml of blood (Proteus vulgaris 1017; 50,000 units/kg s.c. after 30 min and further 50,000 units/kg after 90 min, 30 mins.): 2 × 10^4 bacteria/ml of blood
3 | Cc1ccc(C(=O)N(C)C(=O)N[C@@H](C(=O)N[C@@H]2C(=O)N3[C@@H]2SC(C)(C)[C@@H]3C(=O)O)c2ccccc2)cc1 [Example 73, Sodium D(-)-α-(3-p-methylbenzoyl-3-methyl-ureido)-benzylpenicillin] | 0.78 units/ml | – | 6.25 units/ml | 12.5 units/ml | 12.5 units/ml | ~ 50 units/ml | – | – | 80% | 70% | 50% | 40% | 3.12 units/ml | 1.56 units/ml | 50-100 units/ml | 25-50 units/ml | 200-400 units/ml | 6.25 units/ml | 12.5-25 units/ml | Effectiveness (MIC) (E. coli): 312 units/ml
4 | CC1(C)S[C@@H]2[C@H](NC(=O)[C@H](N)c3ccccc3)C(=O)N2[C@H]1C(=O)O [Ampicillin, D(-)-α-Aminobenzylpenicillin, reference compound] | < 1.0 units/ml | 200 units/ml | 400 units/ml | > 400 units/ml | 200 units/ml | 200 units/ml | – | – | 100% | 100% | 100% | 100% | ~ 0.8 units/ml | 200 units/ml | – | 100-200 units/ml | > 400 units/ml | 6.25 units/ml | 100-200 units/ml | Effectiveness against Klebsiella infections (Klebsiella): not capable of effectively combating Klebsiella infections
5 | CN(C(=O)N[C@@H](C(=O)N[C@@H]1C(=O)N2[C@@H]1SC(C)(C)[C@@H]2C(=O)O)c1ccccc1)C(=O)c1ccccc1 [Example 59, Sodium D(-)-α-(3-benzoyl-3-methyl-ureido)-benzylpenicillin] | < 0.78 units/ml | 100 units/ml | 6.25 units/ml | 12.5 units/ml | 12.5 units/ml | 25 units/ml | remain microbiologically active at pH 1 for over one hour | – | 90% | 70% | 70% | 70% | 1.56 units/ml | 3.12 units/ml | 100 units/ml | 25 units/ml | > 400 units/ml | 6.25 units/ml | 50 units/ml | Serum level ([6]; 15 mins.): 25 units/ml of serum; Serum level ([6]; 30 mins.): 20 units/ml of serum; Serum level ([6]; 60 mins.): < 2 units/ml of serum
6 | CC1(C)S[C@@H]2[C@H](NC(=O)C(C(=O)O)c3ccccc3)C(=O)N2[C@H]1C(=O)O (stereo partly drawn) [Carbenicillin] | – | – | – | – | – | – | – | 2700 mg/kg | – | – | – | – | – | – | – | – | – | – | – | Effectiveness against Klebsiella infections (Klebsiella): only effective in man in the case of infections by Klebsiella bacteria if it is administered in continuing high doses; Number of surviving mice (Pseudomon. aer. F 41; Dose E = 50,000 units/kg): 0%; Number of surviving mice (Pseudomon. aer. F 41; Dose F = 75,000 units/kg): 20%; Number of surviving mice (Pseudomon. aer. F 41; Dose G = 150,000 units/kg): 70%; Number of surviving mice (Pseudomon. aer. F 41; Dose H = 200,000 units/kg): 70%
7 | CN(C(=O)N[C@@H](C(=O)N[C@@H]1C(=O)N2[C@@H]1SC(C)(C)[C@@H]2C(=O)O)c1ccccc1)C(=O)c1ccccc1Cl [Example 107] | < 0.8 units/ml | 20-100 units/ml | 0.8-4 units/ml | 0.8-4 units/ml | 0.8-4 units/ml | 0.8-4 units/ml | – | – | – | – | – | – | < 0.8 units/ml | < 0.8 units/ml | 4-20 units/ml | ~ 4 units/ml | – | < 0.8 units/ml | 4-20 units/ml | Effectiveness in animal experiments against Pseudomonas aerug. Walter (Psdm. aerug. Walter [7]): better than carbenicillin
